Like-named read-outs stand apart in the source and are kept apart here.
Experiments:
[1] = Volatility: mass change rate of the compound by TG/DTA, held at 140° C. for 1 hour; assay type: physicochemical; conditions: for Volatility: held at 140° C. for 1 hour; for volatility suppression effect: in words, discussion of Table 1
Procedure: The compound denoted by Formula (I) in the present invention was heated from room temperature to 140° C. by using a TG/DTA measurement device (TG/DTA7200 manufactured by Hitachi High-Tech Science Corporation), a change rate of the mass of the compound at the time of being held at 140° C. for 1 hour (a change rate with respect to the mass before being heated) was measured, and the volatility was evaluated on the basis of the following criteria.

[2] = pKa by alkali titration with automatic potentiometric titrator; assay type: physicochemical; conditions: mixed solvent THF/H2O=6/4 (volume ratio), 25° C.; for pKa: Table 1
Procedure: pKa of the obtained exemplificative compound was measured in a mixed solvent having a volume ratio of tetrahydrofuran (THF)/water (H2O)=6/4 at 25° C. by an alkali titration method using automatic potentiometric titrator [AT-610: manufactured by Kyoto Electronics Manufacturing Co., Ltd.].
The pKa of the compound of the present invention and the comparative compound in a mixed solvent having a volume ratio of tetrahydrofuran (THF)/water (H2O)=6/4 at 25° C. was measured by an alkali titration method using automatic potentiometric titrator (AT-610: manufactured by Kyoto Electronics Manufacturing Co., Ltd.).

[3] = tetrahydrofuran/water 6/4 (v/v) mixed solvent, read-out: pKa

SMILES | Volatility ([1]; compound alone, Table 1) | volatility suppression effect [1] | pKa [2, 3] | Volatility ([1]; additive, Table 3) | Volatility ([1]; additive, Table 4) | pKa Value [2] | pKa [2]
O=C(O)CN(CC(=O)O)Cc1ccccc1 [(0-2)] | B (The change rate of the mass of greater than or equal to 0.2% and less than 0.5%) | insufficient | 3.2 |  |  |  | 
CCC(Oc1ccc(C(C)(C)CC)cc1C(C)(C)CC)C(=O)Nc1cccc(C(=O)O)c1 (stereo not shown) [(0-3)] | A (The change rate of the mass of less than or equal to 0.2%) |  | 6.6 |  |  |  | 
O=C1NC(=O)N(Cc2ccccc2)C(=O)C1c1ccccc1 (stereo not shown) [Comparative Compound (0-1)] | B (The change rate of the mass of greater than or equal to 0.2% and less than 0.5%) | insufficient | 3.7 |  |  |  | 
O=C(O)CN(CC(=O)OCc1ccccc1)CC(=O)OCc1ccccc1 [Exemplificative Compound (1-1)] | A (The change rate of the mass of less than or equal to 0.2%) |  |  | A (The change rate of the mass of less than or equal to 0.2%) | A (The change rate of the mass of less than or equal to 0.2%) | 6.0 | 6.0

Reference: US10001584B2, “Optical film, and polarizing plate and liquid crystal display device that use this optical film” (FUJIFILM Corporation, priority 2013, dated 2018)
